The numbers were not newly measured in patent US20090196923A1, “CONTROLLED RELEASE FORMULATION COMPRISING ANTI-EPILEPTIC DRUGS” (priority 2006, published 2009), which cites them from elsewhere.

Regarding `NC(=O)N1c2ccccc2CC(=O)c2ccccc21` [Oxcarbazepine, 10, 11-dihydro-10-oxocarbamazepine], the water solubility entry was “poor water solubility”.
